Data: article PMC3734253, “A Novel Color Change Mechanism for Breast Cancer Biomarker Detection: Naphthoquinones as Specific Ligands of Human Arylamine N-Acetyltransferase 1” (PLoS ONE, 2013)

Columns and labels:
[1] = molecular target: T1, hNAT1 (human arylamine N-acetyltransferase 1) (Homo sapiens, UniProt P18440); assay: AcCoA hydrolysis assay, inhibition of hNAT1; type: biochemical; details: for IC50: pABA 500 μM, AcCoA 400 μM, pH 8.0, 5% DMSO
T1 construct: made in house
T1 sequence (P18440 1-290): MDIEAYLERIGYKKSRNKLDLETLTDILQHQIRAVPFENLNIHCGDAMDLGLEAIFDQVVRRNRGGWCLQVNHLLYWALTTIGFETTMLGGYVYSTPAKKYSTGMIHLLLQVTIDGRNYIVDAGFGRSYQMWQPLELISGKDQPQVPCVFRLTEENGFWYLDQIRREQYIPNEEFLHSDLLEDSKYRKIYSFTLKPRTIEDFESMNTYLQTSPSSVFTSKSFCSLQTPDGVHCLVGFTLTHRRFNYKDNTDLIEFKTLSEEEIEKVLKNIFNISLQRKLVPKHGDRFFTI
Description: (§1) NAT activity was determined as previously described,[23]; a full procedure is outlined in the (File S1).
(§2) NAT activity was determined by AcCoA hydrolysis assays. The NAT isoform (100 ng) was pre-incubated with para-amino benzoic acid (500 μM) in the assay buffer (5% DMSO/95% 20mM aq Tris.HCl, pH 8.0) for 5 min. at 37 °C in a 96-well plate (Corning). Pre-warmed AcCoA (400 μM, 37 °C) in assay buffer was added to start the reaction (final volume of 100 μL), which was allowed to proceed at 37 °C. Simultaneous quenching and color development was achieved by addition of 25 μL DTNB solution (5 mM DTNB in 100 mM aq Tris.HCl, 6.4 M guanidine.HCl, pH 7.5). The absorbance was immediately read at 405 nm using a plate reader (Tecan Sunrise). The rate of reaction was determined by reference to a standard curve and controls with buffer alone were carried out. For detection of inhibition, the inhibitors tested were dissolved in DMSO and the final percentage of DMSO in the assay was 5% (v/v). […] A dose-response function was used as a model of regression for the data and the curves were estimated by the method of the least squares analysis.

[2] = molecular target: T2, mNat2 (Mus musculus, UniProt P50295); assay: AcCoA hydrolysis assay, inhibition of mNat2 (wild type); type: biochemical; details: for IC50: mNat2_WT, pABA 500 μM, AcCoA 400 μM, pH 8.0, 5% DMSO
T2 construct: hexa-histidine tag (cleaved yes); made in house; host or cells: E. coli Rosetta(DE3)pLysS
T2 sequence (P50295 1-290): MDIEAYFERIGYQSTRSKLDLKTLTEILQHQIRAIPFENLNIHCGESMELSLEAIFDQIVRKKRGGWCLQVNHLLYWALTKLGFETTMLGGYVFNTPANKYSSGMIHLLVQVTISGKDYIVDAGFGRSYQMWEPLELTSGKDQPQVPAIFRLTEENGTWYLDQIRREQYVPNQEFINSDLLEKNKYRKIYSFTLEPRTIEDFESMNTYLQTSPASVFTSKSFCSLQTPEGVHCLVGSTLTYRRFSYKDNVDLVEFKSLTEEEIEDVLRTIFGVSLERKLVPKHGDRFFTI

[3] = molecular target: T3, hNAT1 (Homo sapiens, UniProt P18440); assay: Visible spectrum of compound in presence of hNAT1; type: binding; details: with hNAT1, 20 mM Tris.HCl pH 8
T3 construct: made in house
T3 sequence (P18440 1-290): T1 sequence (P18440 1-290)
Description: (§3) Visible spectra of each compound were recorded with a U-2001 spectrophotometer (Hitachi) using 1 mL plastic cells of 1 cm path-length (FisherBrand) or 50 μL UVettes® (Eppendorf). Concentrations of inhibitors and protein used are given in the appropriate figure legends. All spectra were blank-corrected.
(§4) 15 μM compound 4 was prepared using different conditions: 20 mM aq Tris.HCl, pH 8, 5% DMSO (v/v); 80 mM aq NaOH, pH 13.75, 5% DMSO (v/v); with hNAT1 (30 μM) in 20 mM aq Tris.HCl, pH 8, 5% DMSO (v/v); with mNat2 (30 μM) 20 mM aq Tris.HCl, pH 8, 5% DMSO (v/v). Wavelength scans from 800 to 350 nm were recorded against the respective blanks containing no compound 4.
as §4, with “5” for “4”, “5.” for “4.”

[4] = molecular target: T2, mNat2; assay: Visible spectrum of compound in presence of mNat2; type: binding; details: with mNat2, 20 mM Tris.HCl pH 8
Description: as §3, §4
as §4, with “5” for “4”, “5.” for “4.”

[5] = molecular target: T4, hNAT2 (Homo sapiens, UniProt P11245); assay: AcCoA hydrolysis assay, inhibition of hNAT2; type: biochemical; details: for enzyme activity retained: hNAT2, inhibitor concentration 30 µM
T4 sequence (P11245 1-290): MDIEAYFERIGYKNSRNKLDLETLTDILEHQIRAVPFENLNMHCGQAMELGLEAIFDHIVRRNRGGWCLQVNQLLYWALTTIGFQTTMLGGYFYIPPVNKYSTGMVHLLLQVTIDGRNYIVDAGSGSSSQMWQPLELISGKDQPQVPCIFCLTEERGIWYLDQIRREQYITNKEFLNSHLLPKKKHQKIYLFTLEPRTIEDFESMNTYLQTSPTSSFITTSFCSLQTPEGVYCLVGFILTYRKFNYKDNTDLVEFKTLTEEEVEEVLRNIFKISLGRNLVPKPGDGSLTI
Description: as §1, §2

[6] = Solubility under NMR conditions for active protein; type: physicochemical; details: 5% DMSO-d6/95% D2O, for 15N-NMR
[7] = molecular target: T5, mNat1 (Mus musculus, UniProt P50294); assay: AcCoA hydrolysis assay, inhibition of mNat1; type: biochemical; details: enzyme mNat1, read-out: % Inhibition at 30 μM of 1
T5 construct: hexa-histidine tag (cleaved yes); made in house; host or cells: E. coli Rosetta(DE3)pLysS
T5 sequence (P50294 1-290): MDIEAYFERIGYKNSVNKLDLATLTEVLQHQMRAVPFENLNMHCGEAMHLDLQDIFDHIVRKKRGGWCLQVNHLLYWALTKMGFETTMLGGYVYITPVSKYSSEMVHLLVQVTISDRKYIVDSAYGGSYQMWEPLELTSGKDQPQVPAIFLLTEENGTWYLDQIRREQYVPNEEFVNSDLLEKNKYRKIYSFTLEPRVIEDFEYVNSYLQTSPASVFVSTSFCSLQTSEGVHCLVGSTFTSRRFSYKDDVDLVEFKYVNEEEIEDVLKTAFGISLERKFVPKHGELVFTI
Description: as §1, §2

[8] = Acid-base (pH) titration by visible spectra; type: physicochemical; details: panel of buffered solutions at diverse pHs with 5% DMSO; 5% DMSO/95% H2O
Description: 5 μL of 1 in DMSO (final concentration 0.1 mM) was added to 95 μL of a panel of solutions buffered at diverse pHs in a flat-bottomed 96-well plate (Corning). Visible spectra of the samples were recorded from 800 to 350 nm on the FLUOstar Omega plate reader (BMG Labtech), then the λmax were determined for all spectra and plotted against pH. A sigmoidal titration curve was fitted using GraphPad®.

[9] = molecular target: T4, hNAT2; assay: Visible spectrum of compound in presence of hNAT2; type: binding; details: with hNAT2
Description: as §3

[10] = molecular target: T5, mNat1; assay: Visible spectrum of compound in presence of mNat1; type: binding; details: with mNat1
Description: as §3

Compound | IC50 [1] [µM] | IC50 [2] [µM] | λmax in presence of hNAT1 [3] [nm] | λmax in presence of mNat2 [4] [nm] | enzyme activity retained [5] | further results
Cc1cc(C)cc(NC2=C(N(C)S(=O)(=O)c3ccccc3)C(=O)c3ccccc3C2=O)c1 [compound 3, N-(3-(3’’,5’’-Dimethylphenylamino)-1,4-dioxo-1,4-dihydronaphthalen-2-yl)-N-methylbenzenesulfonamide] |  |  | 476 | 490 | more than 90% | 
Cc1cc(C)cc(NC2=C([15NH]S(=O)(=O)c3ccccc3)C(=O)c3ccccc3C2=O)c1 [compound 2, N-(3-(3’’,5’’-Dimethylphenylamino)-1,4-dioxo-1,4-dihydronaphthalen-2-yl)^15N-benzenesulfonamide] |  |  |  |  |  | solubility [6]: insufficiently soluble
Cc1cc(C)cc(NC2=C(NS(=O)(=O)c3ccccc3)C(=O)c3ccccc3C2=O)c1 [compound 1, N-(3-(3’’,5’’-Dimethylphenylamino)-1,4-dioxo-1,4-dihydronaphthalen-2-yl)benzenesulfonamide] | 5.3 | 1.9 | 585 | 625 |  | inhibition at 30 µM ([1]; 30 μM, enzyme hNAT1): 93.3 ± 0.9%; inhibition at 30 µM ([2]; 30 μM, enzyme mNat2, read-out: % Inhibition at 30 μM of 1): 92.4 ± 4.4%; Ki ([2]; competitive towards pABA (25-250 µM), AcCoA 400 µM, 9 ng pure recombinant mNat2, Dixon plot, read-out: Ki (app.)): 0.42 µM; inhibition at 30 µM ([5]; 30 μM, enzyme hNAT2, read-out: % Inhibition at 30 μM of 1): 10.6 ± 2%; inhibition at 30 µM [7]: 37.6 ± 1.6%; pKa [8]: ~9.2; λmax in presence of hNAT2 [9]: 498 nm; λmax in presence of mNat1 [10]: 498 nm

Now from value to compound, other results behind:

IC50 [1] [µM] | IC50 [2] [µM] | λmax in presence of hNAT1 [3] [nm] | λmax in presence of mNat2 [4] [nm] | enzyme activity retained [5] | Compound | further results
93 | > 150 | 492 | 492 |  | Cc1cc(C)cc(NC2=C(OS(=O)(=O)c3ccccc3)C(=O)c3ccccc3C2=O)c1 [compound 5, 3-((3’’,5’’-Dimethylphenyl)amino)-1,4-dioxo-1,4-dihydronaphthalen-2-ylbenzenesulfonate] | 
3.6 | 14.6 |  | 548 | more than 90% | COS(=O)(=NC1=C(Nc2cc(C)cc(C)c2)C(=O)c2ccccc2C1=O)c1ccccc1 (stereo not shown) [compound 4, Methyl-N-3-(3’’,5’’-dimethylphenylamino)-1,4-dioxo-1,4-dihydronaphthalen-2-ylbenzenesulfonimidate] | melting point: 71 to 74 °C
